Source: ChEMBL document CHEMBL5532664, “Discovery, Optimization, and Evaluation of Potent and Selective DNA-PK Inhibitors in Combination with Chemotherapy or Radiotherapy for the Treatment of Malignancies” (J Med Chem, 2024)
Calls of active or inactive are those of the source. The calls are words filed in the database; no cut-off is given here.

How the values were obtained:
[1] = tested on: HCT-116; assay: Inhibition of colony formation in human HCT-116 cells at […] preincubated with compound for 1 hr followed by exposure to 2 Gy gamma irradiation and measured after 7 days by crystal violet staining based chemiluminescence assay relative to control; type: functional; details: HCT-116, light or radiation study, dose 0.25 µM, time 169 hrs
[2] = biological target: DNA-dependent protein kinase catalytic subunit (Homo sapiens, UniProt P78527)
Description: Inhibition of human DNA-PK incubated for 30 mins in presence of Mg/ATP by HTRF method

[3] = in vitro; details: human, liver microsomes
[4] = tested on: HCT-116; assay: Inhibition of colony formation in human HCT-116 cells preincubated with compound for 1 hr followed by exposure to 2 Gy gamma irradiation and measured after 7 days by crystal violet staining based chemiluminescence assay; type: functional, cell-based; details: HCT-116, light or radiation study
[5] = tested on: NCI-H460; assay: Antitumor activity against human NCI-H460 cells xenografted in BALB/ c nude mouse assessed as inhibition of tumor growth at 100 mg/kg, po administered once daily with 2 Gy irradiation and measured upto 7 days by vernier caliper analysis; type: functional, organism-based; details: time <= 7.0 day
[6] = in vivo; details: Sprague-Dawley, rat, po, 5 mg/kg
[7] = in vivo; details: Sprague-Dawley, rat, iv, 5 mg/kg
[8] = in vivo; details: Sprague-Dawley, rat, plasma, po, 5 mg/kg
Description: Clearance in Sprague-Dawley rat plasma at 5 mg/kg, po measured upto 24 hrs by LC-MS/MS analysis

[9] = in vivo; details: Sprague-Dawley, rat, plasma, iv, 5 mg/kg
Description: Clearance in Sprague-Dawley rat plasma at 5 mg/kg, iv measured upto 24 hrs by LC-MS/MS analysis

[10] = in vivo; details: Sprague-Dawley, rat, po, 5 mg/kg; remark: listed apart in the source
[11] = in vivo; details: Sprague-Dawley, rat, iv, 5 mg/kg; remark: listed apart in the source
[12] = in vivo; details: Sprague-Dawley, rat, po, 5 mg/kg; remark: listed apart in the source
[13] = in vivo; details: Sprague-Dawley, rat, iv, 5 mg/kg; remark: listed apart in the source
[14] = in vivo; details: Sprague-Dawley, rat, po, 5 mg/kg; remark: listed apart in the source

Sequence of DNA-dependent protein kinase catalytic subunit (P78527 whole entry): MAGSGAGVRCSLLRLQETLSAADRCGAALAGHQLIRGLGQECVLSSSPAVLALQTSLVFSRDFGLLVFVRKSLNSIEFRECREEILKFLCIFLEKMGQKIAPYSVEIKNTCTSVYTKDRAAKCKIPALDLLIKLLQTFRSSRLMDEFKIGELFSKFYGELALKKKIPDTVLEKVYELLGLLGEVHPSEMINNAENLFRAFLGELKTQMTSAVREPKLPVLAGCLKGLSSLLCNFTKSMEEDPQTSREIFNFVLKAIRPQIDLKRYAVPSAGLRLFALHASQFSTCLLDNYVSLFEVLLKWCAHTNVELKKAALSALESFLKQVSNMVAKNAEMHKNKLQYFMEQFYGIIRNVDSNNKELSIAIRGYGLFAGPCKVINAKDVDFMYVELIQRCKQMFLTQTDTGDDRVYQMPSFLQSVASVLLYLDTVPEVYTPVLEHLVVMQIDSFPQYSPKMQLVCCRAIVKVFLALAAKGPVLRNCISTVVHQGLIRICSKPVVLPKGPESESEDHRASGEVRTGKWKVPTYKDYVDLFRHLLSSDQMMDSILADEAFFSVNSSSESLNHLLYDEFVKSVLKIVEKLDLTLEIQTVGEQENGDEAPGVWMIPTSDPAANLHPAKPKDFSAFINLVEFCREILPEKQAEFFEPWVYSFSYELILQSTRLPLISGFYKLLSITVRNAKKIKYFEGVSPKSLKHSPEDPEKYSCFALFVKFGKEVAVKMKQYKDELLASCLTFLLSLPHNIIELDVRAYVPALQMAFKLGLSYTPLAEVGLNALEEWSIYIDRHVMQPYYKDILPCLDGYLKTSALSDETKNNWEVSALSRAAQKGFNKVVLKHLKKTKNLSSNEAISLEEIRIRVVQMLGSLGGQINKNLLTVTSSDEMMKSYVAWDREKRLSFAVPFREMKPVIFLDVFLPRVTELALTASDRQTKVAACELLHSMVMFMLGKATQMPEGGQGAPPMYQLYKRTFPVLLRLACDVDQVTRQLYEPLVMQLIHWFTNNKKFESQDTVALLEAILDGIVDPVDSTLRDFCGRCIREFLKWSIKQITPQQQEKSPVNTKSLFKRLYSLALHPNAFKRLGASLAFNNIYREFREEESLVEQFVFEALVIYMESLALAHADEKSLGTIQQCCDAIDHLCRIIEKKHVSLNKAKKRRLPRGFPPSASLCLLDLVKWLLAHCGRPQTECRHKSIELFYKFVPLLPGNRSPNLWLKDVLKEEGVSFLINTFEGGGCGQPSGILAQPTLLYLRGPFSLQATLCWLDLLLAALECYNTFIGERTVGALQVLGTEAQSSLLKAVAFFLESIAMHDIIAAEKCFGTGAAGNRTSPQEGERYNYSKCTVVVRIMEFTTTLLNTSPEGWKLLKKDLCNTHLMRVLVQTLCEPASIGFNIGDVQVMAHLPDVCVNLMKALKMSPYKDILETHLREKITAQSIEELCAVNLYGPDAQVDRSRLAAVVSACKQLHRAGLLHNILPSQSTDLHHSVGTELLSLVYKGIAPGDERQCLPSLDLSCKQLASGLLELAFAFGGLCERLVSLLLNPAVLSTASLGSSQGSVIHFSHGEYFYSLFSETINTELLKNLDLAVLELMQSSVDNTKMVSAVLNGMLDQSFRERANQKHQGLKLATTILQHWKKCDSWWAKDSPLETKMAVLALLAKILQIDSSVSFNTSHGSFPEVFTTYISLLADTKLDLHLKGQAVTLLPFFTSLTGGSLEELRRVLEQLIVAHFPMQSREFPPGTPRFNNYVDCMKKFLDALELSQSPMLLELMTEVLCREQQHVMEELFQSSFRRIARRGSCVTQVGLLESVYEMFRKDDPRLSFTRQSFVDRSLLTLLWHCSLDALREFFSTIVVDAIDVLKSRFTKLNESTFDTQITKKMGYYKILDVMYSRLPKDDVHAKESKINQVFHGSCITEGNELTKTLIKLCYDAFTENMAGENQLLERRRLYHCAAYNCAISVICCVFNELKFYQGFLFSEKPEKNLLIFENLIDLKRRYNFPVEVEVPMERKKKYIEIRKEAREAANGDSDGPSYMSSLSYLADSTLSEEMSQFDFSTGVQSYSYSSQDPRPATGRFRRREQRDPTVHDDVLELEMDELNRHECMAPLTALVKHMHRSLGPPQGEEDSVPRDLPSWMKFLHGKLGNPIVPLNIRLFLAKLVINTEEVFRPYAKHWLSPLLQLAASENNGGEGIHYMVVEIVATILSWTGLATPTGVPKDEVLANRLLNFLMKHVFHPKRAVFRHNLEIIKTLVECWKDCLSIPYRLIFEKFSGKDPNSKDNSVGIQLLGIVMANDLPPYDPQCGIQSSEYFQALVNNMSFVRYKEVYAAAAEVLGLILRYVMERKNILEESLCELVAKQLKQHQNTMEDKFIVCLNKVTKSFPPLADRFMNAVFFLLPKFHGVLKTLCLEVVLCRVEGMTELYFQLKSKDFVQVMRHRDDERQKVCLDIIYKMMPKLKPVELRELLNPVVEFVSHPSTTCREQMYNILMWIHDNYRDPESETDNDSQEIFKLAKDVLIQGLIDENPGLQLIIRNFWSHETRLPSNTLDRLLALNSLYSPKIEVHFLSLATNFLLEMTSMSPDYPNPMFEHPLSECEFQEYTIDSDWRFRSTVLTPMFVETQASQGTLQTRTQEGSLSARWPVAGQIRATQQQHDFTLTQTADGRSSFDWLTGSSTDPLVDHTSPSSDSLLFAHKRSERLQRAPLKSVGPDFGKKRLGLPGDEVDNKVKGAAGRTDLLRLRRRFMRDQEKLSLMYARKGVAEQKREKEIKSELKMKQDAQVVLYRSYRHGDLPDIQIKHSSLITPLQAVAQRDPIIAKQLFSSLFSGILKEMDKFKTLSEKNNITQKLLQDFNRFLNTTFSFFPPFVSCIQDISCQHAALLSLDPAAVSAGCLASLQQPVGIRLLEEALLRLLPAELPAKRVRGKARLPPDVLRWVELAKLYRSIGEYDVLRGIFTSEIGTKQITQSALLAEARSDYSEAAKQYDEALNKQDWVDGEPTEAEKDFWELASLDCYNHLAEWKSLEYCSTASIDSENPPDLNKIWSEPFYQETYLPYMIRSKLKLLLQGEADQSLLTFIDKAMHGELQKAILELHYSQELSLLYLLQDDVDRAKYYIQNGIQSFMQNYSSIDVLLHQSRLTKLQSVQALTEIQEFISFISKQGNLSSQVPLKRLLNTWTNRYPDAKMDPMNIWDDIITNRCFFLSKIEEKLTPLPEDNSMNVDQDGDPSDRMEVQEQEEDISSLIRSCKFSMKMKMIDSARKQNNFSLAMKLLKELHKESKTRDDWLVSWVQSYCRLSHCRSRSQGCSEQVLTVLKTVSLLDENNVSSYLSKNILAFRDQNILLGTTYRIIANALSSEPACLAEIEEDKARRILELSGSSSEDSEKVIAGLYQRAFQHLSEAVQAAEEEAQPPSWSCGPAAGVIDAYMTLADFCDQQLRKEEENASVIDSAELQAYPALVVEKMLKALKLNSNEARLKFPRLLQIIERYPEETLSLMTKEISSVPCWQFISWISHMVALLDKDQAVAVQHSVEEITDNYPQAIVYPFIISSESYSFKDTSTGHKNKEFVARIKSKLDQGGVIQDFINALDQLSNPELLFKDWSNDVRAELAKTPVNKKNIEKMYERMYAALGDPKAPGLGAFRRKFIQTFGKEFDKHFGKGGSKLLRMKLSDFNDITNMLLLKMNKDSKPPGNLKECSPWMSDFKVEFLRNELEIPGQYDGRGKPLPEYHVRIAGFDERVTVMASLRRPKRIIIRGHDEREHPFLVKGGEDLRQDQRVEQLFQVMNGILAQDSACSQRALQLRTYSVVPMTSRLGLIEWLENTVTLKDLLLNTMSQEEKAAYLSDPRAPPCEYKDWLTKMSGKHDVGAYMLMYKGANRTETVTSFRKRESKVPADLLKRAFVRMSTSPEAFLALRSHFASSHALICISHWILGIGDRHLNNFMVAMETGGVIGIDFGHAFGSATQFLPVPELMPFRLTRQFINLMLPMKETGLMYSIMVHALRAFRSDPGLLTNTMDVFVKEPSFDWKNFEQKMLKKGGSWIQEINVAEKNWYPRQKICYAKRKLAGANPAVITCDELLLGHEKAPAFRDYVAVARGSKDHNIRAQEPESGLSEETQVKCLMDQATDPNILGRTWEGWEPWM

## Cc1cc(-c2cnn(C)c2)ncc1Nc1ncc2c(n1)n(C1CCN(S(=O)(=O)C3CC3)CC1)c(=O)n2C
[1]
  inhibition at […]: 84.9%
[2]
  IC50: 2 nM
[3]
  half-life at 5 min, 1 µM: 3.04 h

## Cc1cc(-c2cnn(C)c2)ncc1Nc1ncc2c(n1)n([C@H]1CCOC1)c(=O)n2C
[1]
  inhibition at […]: 90.7%
[2]
  IC50: 6 nM
[3]
  half-life at 5 min, 1 µM: 28.9 h

## Cc1nc(-c2cnn(C)c2)ccc1Nc1ncc2c(n1)n(C1CCOCC1)c(=O)n2C
[1]
  inhibition at […]: 23.3%

## Cc1cc(-c2cnn(C(C)C)c2)ncc1Nc1ncc2c(n1)n(C1CCOCC1)c(=O)n2C
[1]
  inhibition at […]: 12.6%

## Cc1cc(-c2ccsc2)ncc1Nc1ncc2c(n1)n(C1CCOCC1)c(=O)n2C
[1]
  inhibition at […]: 99.8%
[4]
  IC50: 3.76 nM
[5]
  Activity: Active
[2]
  IC50: 0.8 nM
[3]
  half-life at 5 min, 1 µM: 2.51 h

## Cc1cc(-c2cnn(C)c2)ncc1Nc1ncc2c(n1)n(C1CCNCC1)c(=O)n2C
[1]
  inhibition at […]: 46.8%
[2]
  IC50: 0.9 nM

## Cn1c(=O)n(C2CCOCC2)c2nc(Nc3ccc(-c4ccc5c(c4)OCO5)nc3)ncc21
[1]
  inhibition at […]: 85.8%

## Cc1cc(-c2cnn(C)c2)ncc1Nc1ncc2c(n1)n([C@@]13C[C@@H]4C[C@@](C)(C[C@@](C)(C4)C1)C3)c(=O)n2C
[1]
  inhibition at […]: 83.9%
[3]
  half-life at 5 min, 1 µM: 0.0373 h

## Cc1cnc(-c2cnn(C)c2)cc1Nc1ncc2c(n1)n(C1CCOCC1)c(=O)n2C
[1]
  inhibition at […]: 99.4%
[4]
  IC50: 27.5 nM
[5]
  Activity: Active
[6]
  half-life at 24 h: 11.6 h
[7]
  half-life at 24 h: 7.08 h
[8]
  CL/F at 24 h: 16 mL/min/kg
[9]
  clearance at 24 h: 11.7 mL/min/kg
[10]
  AUC(0-t) at 24 h: 6470 ng·h/mL
[11]
  AUC(0-t) at 24 h: 7300 ng·h/mL
[12]
  Cmax at 24 h: 406 ng/mL
[13]
  Cmax at 24 h: 1320 ng/mL
[14]
  bioavailability at 24 h: 88.5%
[3]
  half-life at 5 min, 1 µM: 4.81 h

## Cc1cc(-c2coc(C=O)c2)ncc1Nc1ncc2c(n1)n(C1CCOCC1)c(=O)n2C
[1]
  inhibition at […]: 96.9%
[3]
  half-life at 5 min, 1 µM: 0.235 h

## Cc1cc(-c2ccnn2C)ncc1Nc1ncc2c(n1)n(C1CCOCC1)c(=O)n2C
[1]
  inhibition at […]: 95%
[2]
  IC50: 8 nM
[3]
  half-life at 5 min, 1 µM: 14.4 h

## Cc1cc(-c2cnn(C)c2)ncc1Nc1ncc2c(n1)n(C1CC1)c(=O)n2C
[1]
  inhibition at […]: 53.1%

## COc1ccc(-c2ccc(Nc3ncc4c(n3)n(C3CCOCC3)c(=O)n4C)c(C)n2)cc1OC
[1]
  inhibition at […]: 28.3%

## COc1ccc2c(c1)CCN2c1ncc2c(n1)n(C1CCOCC1)c(=O)n2C
[1]
  inhibition at […]: 86.1%
[2]
  IC50: 6 nM
[3]
  half-life at 5 min, 1 µM: 0.138 h

## Cc1cc(-c2ncn(C)n2)ccc1Nc1ncc2c(n1)n(C1CCOCC1)c(=O)n2C
[1]
  inhibition at […]: 56.1%
[2]
  IC50: 13 nM

## Cc1cc(-c2ccc3c(c2)OCCO3)ncc1Nc1ncc2c(n1)n(C1CCOCC1)c(=O)n2C
[1]
  inhibition at […]: 60%

## Cc1cc(-c2cnn(C)c2)ccc1Nc1ncc2c(n1)n(C1CCOCC1)c(=O)n2C
[1]
  inhibition at […]: 58.5%

## COc1ccc(-c2ccc(Nc3ncc4c(n3)n(C3CCOCC3)c(=O)n4C)c(C)n2)cn1
[1]
  inhibition at […]: 29.9%
[2]
  IC50: 161 nM

## Cc1ncc(-c2cnn(C)c2)cc1Nc1ncc2c(n1)n(C1CCOCC1)c(=O)n2C
[1]
  inhibition at […]: 74.3%
[2]
  IC50: 10 nM

## CC(=O)c1ccc2c(c1)CCN2c1ncc2c(n1)n(C1CCOCC1)c(=O)n2C
[1]
  inhibition at […]: 32.6%
[2]
  IC50: 1 nM

## Cc1nc(-c2cnn(C)c2)ncc1Nc1ncc2c(n1)n(C1CCOCC1)c(=O)n2C
[1]
  inhibition at […]: 63.2%

## Cn1c(=O)n(C2CCOCC2)c2nc(N3CCc4cc(F)c(F)cc43)ncc21
[1]
  inhibition at […]: 8.2%

## CC(=O)N1CCC(n2c(=O)n(C)c3cnc(Nc4cnc(-c5cnn(C)c5)cc4C)nc32)CC1
[1]
  inhibition at […]: 14.7%
[2]
  IC50: 1 nM

## Cc1cc(-c2cnn(C3CC3)c2)ncc1Nc1ncc2c(n1)n(C1CCOCC1)c(=O)n2C
[1]
  inhibition at […]: 63.3%

## Cc1cc(-c2cnn(C)c2)cnc1Nc1ncc2c(n1)n(C1CCOCC1)c(=O)n2C
[1]
  inhibition at […]: -0.2%

## Cc1ccc(-c2cnn(C)c2)cc1Nc1ncc2c(n1)n(C1CCOCC1)c(=O)n2C
[1]
  inhibition at […]: 98%
[2]
  IC50: 2 nM
[3]
  half-life at 5 min, 1 µM: 3.04 h

## Cc1cc(-c2cnn(C)c2)ncc1Nc1ncc2c(n1)n(C1CCN(S(C)(=O)=O)CC1)c(=O)n2C
[1]
  inhibition at […]: 30.4%
[2]
  IC50: 1 nM

## Cc1cc(-c2cnn(C)c2)ncc1Nc1ncc2c(n1)n(C1CCCCC1C)c(=O)n2C (stereo not drawn)
[1]
  inhibition at […]: 86.7%
[2]
  IC50: 9 nM

## Cc1cc(-c2cncnc2)ncc1Nc1ncc2c(n1)n(C1CCOCC1)c(=O)n2C
[1]
  inhibition at […]: 22.9%

## Cc1cc(-c2cccc(S(C)(=O)=O)c2)ncc1Nc1ncc2c(n1)n(C1CCOCC1)c(=O)n2C
[1]
  inhibition at […]: 19.3%

## Cc1nc(-c2ccnn2C)ccc1Nc1ncc2c(n1)n(C1CCOCC1)c(=O)n2C
[2]
  IC50: 9.6 nM

## Cn1c(=O)n(C2CCOCC2)c2nc(N3CCc4ccc([N+](=O)[O-])cc43)ncc21
[1]
  inhibition at […]: 12.5%

## Cc1cc(-c2ccco2)ncc1Nc1ncc2c(n1)n(C1CCOCC1)c(=O)n2C
[1]
  inhibition at […]: 99.7%

## COC(=O)c1ccc2c(c1)CCN2c1ncc2c(n1)n(C1CCOCC1)c(=O)n2C
[1]
  inhibition at […]: 48.1%
[2]
  IC50: 5 nM

## COc1ncc(-c2cc(C)c(Nc3ncc4c(n3)n(C3CCOCC3)c(=O)n4C)cn2)cn1
[1]
  inhibition at […]: 34%

## Cn1c(=O)n(C2CCOCC2)c2nc(N3CCc4cc(C(F)(F)F)ccc43)ncc21
[1]
  inhibition at […]: 41%

## Cc1cc(-c2cn(C)nc2C)ncc1Nc1ncc2c(n1)n(C1CCOCC1)c(=O)n2C
[1]
  inhibition at […]: 77.4%
[2]
  IC50: 6 nM
[3]
  half-life at 5 min, 1 µM: 128 h

## COc1cc(-c2cc(C)c(Nc3ncc4c(n3)n(C3CCOCC3)c(=O)n4C)cn2)cc(OC)c1OC
[1]
  inhibition at […]: -11.4%

## Cn1cc(-c2ccc3c(c2)CCN3c2ncc3c(n2)n(C2CCOCC2)c(=O)n3C)cn1
[1]
  inhibition at […]: 97.6%
[2]
  IC50: 8 nM
[3]
  half-life at 5 min, 1 µM: 2.51 h

## Cc1cc(-c2cn(C)nc2C(F)(F)F)ncc1Nc1ncc2c(n1)n(C1CCOCC1)c(=O)n2C
[1]
  inhibition at […]: 63.9%
[2]
  IC50: 4 nM
[3]
  half-life at 5 min, 1 µM: 1.99 h

## Cc1cc(-c2cnn(C)c2)ncc1Nc1ncc2c(n1)n(C1CCN(S(=O)(=O)C(F)(F)F)CC1)c(=O)n2C
[1]
  inhibition at […]: 86.7%
[2]
  IC50: 5 nM

## COc1cc2c(cc1OC)N(c1ncc3c(n1)n(C1CCOCC1)c(=O)n3C)CC2
[1]
  inhibition at […]: 89.8%

## Cc1cc(-c2cccs2)ncc1Nc1ncc2c(n1)n(C1CCOCC1)c(=O)n2C
[1]
  inhibition at […]: 97.9%
[4]
  IC50: 15.2 nM
[5]
  Activity: Active
[2]
  IC50: 0.1 nM
[6]
  half-life at 24 h: 7.34 h
[7]
  half-life at 24 h: 3.45 h
[8]
  CL/F at 24 h: 204 mL/min/kg
[9]
  clearance at 24 h: 306 mL/min/kg
[10]
  AUC(0-t) at 24 h: 277 ng·h/mL
[11]
  AUC(0-t) at 24 h: 278 ng·h/mL
[12]
  Cmax at 24 h: 23.8 ng/mL
[13]
  Cmax at 24 h: 23.3 ng/mL
[14]
  bioavailability at 24 h: 99.6%
[3]
  half-life at 5 min, 1 µM: 1.96 h

## Cn1c(=O)n(C2CCOCC2)c2nc(N3CCc4cc(C#N)ccc43)ncc21
[1]
  inhibition at […]: 84.7%
[2]
  IC50: 13 nM
[3]
  half-life at 5 min, 1 µM: 0.352 h

## COc1cncc(-c2ccc(Nc3ncc4c(n3)n(C3CCOCC3)c(=O)n4C)c(C)n2)c1
[2]
  IC50: 5.3 nM

## Cc1cc(-c2cnn(C)c2)ncc1Nc1ncc2c(n1)n(C1CCN(C(=O)C3CC3)CC1)c(=O)n2C
[1]
  inhibition at […]: 66.9%
[2]
  IC50: 3 nM

## Cc1cc(-c2cn[nH]c2)ncc1Nc1ncc2c(n1)n(C1CCOCC1)c(=O)n2C
[1]
  inhibition at […]: 86.7%
[2]
  IC50: 0.4 nM
[3]
  half-life at 5 min, 1 µM: 0.963 h

## Cc1cc(-c2cnn(C)c2)ncc1Nc1ncc2c(n1)n(CC1CCOCC1)c(=O)n2C
[1]
  inhibition at […]: 42.8%

## Cc1cc(-c2c(C)nn(C)c2C)ncc1Nc1ncc2c(n1)n(C1CCOCC1)c(=O)n2C
[1]
  inhibition at […]: 22.9%

## Cc1cc(-c2cnn(C)c2)ncc1Nc1ncc2c(n1)n(C1CCN(C(=O)[C@@H]3C[C@H]3F)CC1)c(=O)n2C
[1]
  inhibition at […]: 28.3%

## Cc1cc(-c2c(C)noc2C)ncc1Nc1ncc2c(n1)n(C1CCOCC1)c(=O)n2C
[1]
  inhibition at […]: 25%

## Cc1cc(-c2cnoc2)ncc1Nc1ncc2c(n1)n(C1CCOCC1)c(=O)n2C
[1]
  inhibition at […]: 32.8%

## Cc1ccc(-c2cc(C)c(Nc3ncc4c(n3)n(C3CCOCC3)c(=O)n4C)cn2)o1
[1]
  inhibition at […]: 76.7%
[3]
  half-life at 5 min, 1 µM: 0.642 h

## Cn1c(=O)n(C2CCOCC2)c2nc(N3CCc4ccccc43)ncc21
[1]
  inhibition at […]: -11.6%
[3]
  half-life at 5 min, 1 µM: 1.2 h

## Cc1cc(-c2ccoc2)ncc1Nc1ncc2c(n1)n(C1CCOCC1)c(=O)n2C
[1]
  inhibition at […]: 99.8%
[3]
  half-life at 5 min, 1 µM: 0.213 h

## Cc1cc(-c2cccnc2)ncc1Nc1ncc2c(n1)n(C1CCOCC1)c(=O)n2C
[1]
  inhibition at […]: 97.4%

## Cc1cc(-c2cnn(C)c2)ncc1Nc1ncc2c(n1)n(C1CCN(C(=O)C3CC3(F)F)CC1)c(=O)n2C (stereo not drawn)
[1]
  inhibition at […]: 47.3%
[2]
  IC50: 12 nM

## Cc1cc(-c2cnn(C)c2C)ncc1Nc1ncc2c(n1)n(C1CCOCC1)c(=O)n2C
[1]
  inhibition at […]: 28%

## Cc1nc(-c2cn[nH]c2)ccc1Nc1ncc2c(n1)n(C1CCOCC1)c(=O)n2C
[1]
  inhibition at […]: 27.7%
[2]
  IC50: 25 nM
[3]
  half-life at 5 min, 1 µM: 1.2 h

## Cn1c(=O)n(C2CCOCC2)c2nc(N3CCc4cc(S(C)(=O)=O)ccc43)ncc21
[1]
  inhibition at […]: 5.8%
